According to patent US11925618B2, “Pharmaceutical combination for the treatment of cancer” (Piramal Enterprises Limited, priority 2014, dated 2024):
pEC50: −log10 of the molar value. Where two headings read alike, the source gives them in different places.

What was measured:
Assay type in all cases: cell-based
[1] = test system: Thioredoxin Reductase (TrxR); assay: TrxR activity assay (DTNB reduction) in FaDu cell lysates; settings: FaDu cells, DTNB reduction with or without ATM
Method: • (i) Cell lines: The cell lines of FaDu for head and neck squamous cell carcinomas (HNSCC) obtained from ATCC (American Tissue type Culture Collection), USA. • (ii) DTNB: Dithio nitro benzoic acid • (iii) ATM: Aurothiomalate
TrxR assay was conducted in six-well plates with 1M cells per well. The cells were treated with various concentrations of auranofin or voruciclib and in combination of both. The TrxR activity was measured in cell lysates using DTNB (Dithio nitro benzoic acid). The DINS was reduced to TNB (Thio nito benzoic acid) with or without a specific TrxR inhibitor, Aurothiomalate (ATM). The TrxR activity was calculated based on the difference in slope obtained from linear kinetic of DTNB reduction with or without ATM treatment.
The effect of auranofin and voruciclib combination on TrxR activity assay in FaDu cells are depicted in FIG. 16. The data is represented as mean±SEM (N=2) of % TrxR activity (Y-axis) and various concentration (μM) of Auranofin or voruciclib or combination of both (X-axis); PC—Positive control, C—Vehicle control.

MDA-MB-231 cell lines = assay: CGI (cell growth inhibition, propidium iodide) assay in MDA-MB-231 cell lines; settings: determined at 72 h
Method: (§1) The media was removed from the flask containing cells and 2-3 mL of sterile 1×DPBS was added to the flask. The DPBS was then removed from the flask and 2 mL of trypsin was added to the flask. The flask was kept in the incubator for a few seconds. The cells were then checked whether dislodged and if dislodged, 2 mL of serum was added to the flask. To the flask was then added 5-6 mL of media and swirled. The media was collected from the flask and centrifuged at 600 rpm for 10 min.
(§2) The supernatant solution was decanted and the pellet was re-suspended in 10 mL of media. To a 1.7 mL MCT; 50 μL of tryphan blue, 40 μL of media and 10 μL of cell suspension were added. The solution was then vortexed and 10 μL of this solution was loaded on a hemocytometer. The cells were counted in hemocytometer chambers and further calculated to get a count of ≥3000 cells/well/200 μL.
(§3) The cell stock was prepared using respective media and FBS, and 200 μL of the cell stock was added to each well (except media control wells) of white delta treated 96 well plate using a multi-channel pipette. To the media control wells, 200 μL of media was added. The plates were then incubated at 37° C. for 12-16 h.
(§4) The drug (the therapeutic agent) i.e. the CDK inhibitor and the antioxidant enzyme inhibitor were separately diluted to 10 folds using DMSO. The media of the plates was changed before the addition of drug to the plates and these plates were then placed in the incubator. 1 μL of CDK inhibitor and antioxidant enzyme inhibitor was added simultaneously to the respective wells and placed on the plate shaker for 15-30 mins. The plates were then placed back in incubator for 72 h or the time of incubation as decided.
(§5) 200 μL of media from each well was gently aspirated and then added 100 μL of 1×DPBS at room temperature to each well. The working stock of PI (stock 1 mg/mL) was prepared using 140 μL of PI and 20 mL of 1×DPBS for one plate. Then 1×DPBS was removed from the wells and 200 μL of PI working stock was added to each well. These plates were kept in dark for 5-10 min at room temperature on a shaker, after which the plates were stored at −80° C. until reading of the plate.
(§6) The plate was read in Spectramax fluorescence excitation maximum is 535 nm and the emission maximum is 617 nm.
Cell lines: The cell lines of MDA-MB-231 for triple negative breast cancer (TNBC) obtained from ATCC (American Tissue type Culture Collection), USA were used in this study.
The analysis of combination index and cell growth inhibition was carried out using CGI assay method. […]
The combination studies of CDK inhibitor with each of the TrxR inhibitors, auranofin, ebselen and ATO was carried out at 12, 24, 48 and 72 h and the time point for which optimum synergy was obtained was determined. […]

FaDu cell lines = assay: CGI (cell growth inhibition, propidium iodide) assay in FaDu cell lines
Method: as §1, §2, §3, §4, §5, §6
Cell lines: The cell lines of FaDu for head and neck squamous cell carcinomas (HNSCC) obtained from ATCC (American Tissue type Culture Collection), USA were used in this study.
The analysis of combination index (CI) and cell growth inhibition was carried out using CGI assay method. […]
The combination studies of CDK inhibitor with TrxR inhibitor, auranofin was carried out at 12, 24, 48 and 72 h and the time point for which optimum synergy was obtained was determined. […]

[2] = test system: ROS production in FaDu cells; assay: Cellular ROS detection assay using DCFDA; settings: single agent
Method: as §1
as §2, with “≥25000” for “≥3000”, “μL. […]” for “μL.”
The plate was read in Spectamax fluoroscence excitation maximum is 485 nm and the emission maximum is 535 nm. […]
The […] cells were treated with various concentrations (μM) of auranofin or voruciclib alone or in combination. […] The treated FaDu/MDAMB-431 cells were analyzed on a fluorescent plate reader vis-a-vis the cells of positive control which were treated with 50 μM tert-butyl hydrogen peroxide (TBHP). […]

Row | Compound | effect on TrxR activity [1] | pEC50 (MDA-MB-231 cell lines; Homo sapiens) | pEC50 (FaDu cell lines; Homo sapiens, FaDu cell lines, determined at 48 h, read-out: EC50) | increase in ROS level as compared to untreated control [2] [%] | pEC50 (FaDu cell lines; Homo sapiens, FaDu, 72 h) | pEC50 (MDA-MB-231 cell lines) | pEC50 (FaDu cell lines; FaDu cell lines, determined at 72 h, read-out: EC50) | pEC50 (FaDu cell lines; FaDu cell lines, determined at 48 h, read-out: EC50)
1 | CN1CC[C@@H](c2c(O)cc(O)c3c(=O)cc(-c4ccc(C(F)(F)F)cc4Cl)oc23)[C@@H]1CO.Cl [Voruciclib, (+)-2-[2-Chloro-4-(trifluoromethyl)phenyl]-5,7-dihydroxy-8-[(2R,3S)-2-(hydroxymethyl)-1-methylpyrrolidin-3-yl]-4H-chromen-4-one hydrochloride] | no effect | 5.64 | 5.69 | ~80 | – | – | – | –
2 | O=c1c2ccccc2[se]n1-c1ccccc1 [Ebselen] | – | 5.41 | – | – | 5.40 | – | – | –
3 | Arsenic trioxide [ATO] | – | – | – | – | – | 5.28 | 5.31 | –
4 | CC(=O)OC[C@H]1O[C@@H]([S-])[C@H](OC(C)=O)[C@@H](OC(C)=O)[C@@H]1OC(C)=O.CCP(CC)CC.[Au+] [Auranofin] | concentration dependent reduction | – | – | ~100 | – | 6.82 | – | 6.82
